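The compound was tested at five concentrations on cells cultured in 96-well plates, with a 48-hour exposure period. At the GI50, growth is halved. TGI denotes the concentration required for complete inhibition of growth.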
How the values were obtained:
Assay in all cases: NCI tumour cell line growth inhibition, 48 h
HCT-116 colon = test system: HCT-116 colon
NCI-H460 lung = test system: NCI-H460 lung
A549 NSCLC = test system: A549 NSCLC
DLD-1 colon = test system: DLD-1 colon
RPMI-8226 leukemia = test system: RPMI-8226 leukemia
KM12 colon = test system: KM12 colon
HL-60(TB) leukemia = test system: HL-60(TB) leukemia
LXFL 529 NSCLC = test system: LXFL 529 NSCLC
SK-MEL-28 melanoma = test system: SK-MEL-28 melanoma
RXF 393 renal = test system: RXF 393 renal

Compound | TGI (HCT-116 colon) [µM] | TGI (NCI-H460 lung) [µM] | TGI (A549 NSCLC) [µM] | TGI (DLD-1 colon) [µM] | TGI (RPMI-8226 leukemia) [µM] | TGI (KM12 colon) [µM] | TGI (HL-60(TB) leukemia) [µM] | TGI (LXFL 529 NSCLC) [µM] | TGI (SK-MEL-28 melanoma) [µM] | TGI (RXF 393 renal) [µM] | GI50 (RXF 393 renal) [µM] | GI50 (HCT-116 colon) [µM] | GI50 (NCI-H460 lung) [µM] | GI50 (A549 NSCLC) [µM] | GI50 (RPMI-8226 leukemia) [µM] | GI50 (KM12 colon) [µM] | GI50 (HL-60(TB) leukemia) [µM] | GI50 (SK-MEL-28 melanoma) [µM] | GI50 (DLD-1 colon) [µM] | GI50 (LXFL 529 NSCLC) [µM]
NCC(NC(=O)OCc1ccccc1)C(=O)O (centres undefined) | > 50 | > 50 | > 50 | > 50 | > 50 | > 50 | > 50 | > 50 | > 50 |  |  |  |  |  |  |  |  |  |  | 
CC(=O)OC1C(CCl)OC(N=[N+]=[N-])C(OC(C)=O)C1OC(C)=O (centres undefined) | > 100 | > 100 | > 100 | > 100 | > 100 | > 100 | > 100 |  | > 100 | > 100 |  |  |  |  |  |  |  |  |  | 
N#CCC(=O)N/N=C1\C(=O)N(c2ccc(Cl)cc2)C(=O)C(=O)C1c1nc2ccccc2o1 (centres undefined) | > 100 | > 100 | > 100 | > 100 |  | > 100 | > 100 | > 100 | > 100 | > 100 |  |  |  |  |  |  |  |  |  | 
Clc1ccc(OC2CCO2)cc1Cl (centres undefined) | > 100 | > 100 | > 100 | > 100 | > 100 | > 100 | > 100 | > 100 | > 100 |  |  |  |  |  |  |  |  |  |  | 
O=C(O)C#CCO | > 100 | > 100 | > 100 |  | > 100 | > 100 | > 100 | > 100 | > 100 | > 100 |  |  |  |  |  |  |  |  |  | 
O=c1c2ccccc2c(=O)c2c1cc(Cl)c1[nH]c3c([nH]c12)c(Cl)cc1c(=O)c2ccccc2c(=O)c13 | > 100 | > 100 | > 100 | > 100 | > 100 | > 100 | > 100 |  | > 100 | > 100 |  |  |  |  |  |  |  |  |  | 
Cc1cc(C(=O)N2CCN(Cc3ccccc3)CC2)c(C)o1 | > 100 | > 100 | > 100 | > 100 | > 100 | > 100 | > 100 | > 100 | > 100 |  |  |  |  |  |  |  |  |  |  | 
COC(=O)C1CCC(Nc2cccc(C(F)(F)F)c2)=N1 (centres undefined) | > 100 | > 100 | > 100 | > 100 | > 100 | > 100 | > 100 | > 100 | > 100 |  |  |  |  |  |  |  |  |  |  | 
CCN(CC)CCNC(=O)c1cccc2cc3ccccc3nc12 | 21.8 | 11.6 | > 100 | 20.7 |  | 36.6 | 24.4 |  | 23.1 | 10.7 |  |  |  |  |  |  |  |  |  | 
COc1cc2cc[n+]3c4cc(OC)c(OC)cc4c(C)cc3c2cc1OC | > 100 | > 100 | > 100 | > 100 | > 100 | > 100 | > 100 | > 100 | > 100 |  |  |  |  |  |  |  |  |  |  | 
O=C(O)CCC1(Br)CCCCC(Br)C1=O (centres undefined) | > 100 | > 100 | > 100 |  | > 100 |  | > 100 | > 100 | > 100 | > 100 |  |  |  |  |  |  |  |  |  | 
COc1c(CNC(=O)CCl)cc2[nH]c(C)cc2c1CNC(=O)CCl | 15.7 | 15.6 | 26.7 |  | 52.8 | 19.4 | 26.5 |  | 29.8 | 14.1 | 3.5 | 2.93 | 3.73 | 7.38 | 5.17 | 6.08 | 4.32 | 5.44 |  | 
CCC1CC(=O)N(SCC(N)C(=O)O)C1=O (centres undefined) | > 100 | > 100 | > 100 |  | > 100 | > 100 | > 100 |  | > 100 | > 100 |  |  |  |  |  |  |  |  |  | 
CCC[CH2][Sn]([CH2]CCC)([O]C(=O)c1nccnc1N)[O]C(=O)c1nccnc1N | 2.3 | 3.33 | 12.7 | 2.12 |  | 2.74 | 1.42 | 0.327 | 2.04 | 1.31 | 0.187 | 1.1 | 1.63 | 3.52 |  | 1.42 | 0.262 | 0.769 | 0.876 | 0.124
Cc1cc(C)cc(Sc2c([N+](=O)[O-])ncn2C)c1 | 32.4 | > 100 | > 100 | 27.5 | > 100 | 53.8 |  | 40.9 | 30 |  |  |  |  |  |  |  |  |  |  | 
Cc1ccccc1N=Nc1c(O)[nH]c2ccccc12 | > 100 | > 100 | > 100 |  | > 100 | > 100 | > 100 |  | > 100 | > 100 |  |  |  |  |  |  |  |  |  | 
COC(=O)[C@@]1(C)CC[C@]2(C)CC[C@]3(C)C4=CC=C5C(=CC(=O)C(O)=C5C)[C@]4(C)CC[C@@]3(C)[C@@H]2C1 | 0.32 | 0.796 | 2.54 |  | 0.517 | 1.49 | 0.684 |  | 0.601 | 0.33 | 0.176 | 0.163 | 0.274 | 1.21 | 0.183 | 0.369 | 0.163 | 0.244 |  | 
CCOC(=O)C1=C(C)NC2SC(=O)/C(=C\c3ccccc3)N2C1c1ccccc1 (centres undefined) | > 100 | > 100 | > 100 |  | > 100 | > 100 | > 100 |  | > 100 | > 100 | > 100 | 67.5 | 93.5 | > 100 | 33.5 | 73.7 | 25.6 | > 100 |  | 
O=C1/C(=C\c2coc3ccccc3c2=O)c2ccccc2N1c1c(Cl)cccc1Cl | 14.5 | 16.3 | > 100 |  | 3.95 | 68.5 | 87.6 |  | > 100 | 5.11 | 1.86 | 2.01 | 2.05 | 4.24 | 1.25 | 3.06 | 2.08 | 3.91 |  | 
COc1cc2c3c(n(C)c(=O)c2cc1OC)-c1cc2c(cc1/C3=C\CCCBr)OCO2 | > 60.8 | > 100 | > 100 |  | > 100 | > 100 | > 100 |  | > 100 | 16.8 | 6.35 | 27.2 | 26.9 | > 100 | 29.1 | > 100 | > 80.3 | > 100 |  | 

Source: PubChem BioAssay (NCI)
